Key:
vaccinia virus = test: Vaccinia virus plaque formation in IL-4/13-treated PHFK exposed to P6; format: cell-based; settings: PHFK in IL-4 and IL-13; 50 or 200 nM; 200 pfu VV; three days post infection; n=7 donors
PHFK cells [1] = test: Cell viability of differentiated PHFK by LDH and WST-1 assay; settings: PHFK differentiated 2 days; 24 hours
Description: Briefly, PHFK cells were differentiated for 2 days in the same manner described above. […] Cell viability was measured by LDH and WST-1 assay 24 hours later.

PHFK cells [2] = test: TEER barrier function of IL-4/13-treated PHFK exposed to P6; format: cell-based, human; settings: PHFK in IL-4 and IL-13 for two days; 50 or 100 nM; versus DMSO control
Description: TEER was taken daily. Data was normalized to Th2 treated samples (n=5-7 donors for TEER (SEM)). Significance was tested versus a DMSO control.

## CC(C)(C)c1nc2c3cc[nH]c(=O)c3c3cc(F)ccc3c2[nH]1 [P6, Pyridone 6]
Vaccinia virus
  keratinocyte susceptibility to viral infection (plaque number normalized to IL-4/13 treated controls): reversed keratinocyte susceptibility to viral infection in a dose dependent manner
PHFK cells [1]
  concentration not toxic to keratinocytes (LDH and WST-1): ≥ 1000 nM
PHFK cells [2]
  barrier function (TEER normalized to Th2 treated samples): improved barrier function in keratinocytes in a dose dependent manner

Reference: patent publication US12239705B2, “Therapeutic mitigation of epithelial infection” (priority 2018, dated 2025)
